Data reported in US9603820B2, “Ornithine aminotransferase inhibition with GABA analogues for treatment of hepatocellular carcinoma” (Northwestern University, priority 2014, dated 2017).
Entries after “also recorded” stand apart in the source; their conditions may differ. Where two headings read alike, the source gives them in different places.

Experiments:
[1] = tested on: hepatocellular carcinoma (HCC); settings: HCC patients, cited from earlier work; for response rates: single agent
OAT = molecular target: T1, OAT (Homo sapiens, UniProt P04181); settings: prior art, FIG. 1; cited from earlier work
T1 sequence (P04181 36-439 limits assumed): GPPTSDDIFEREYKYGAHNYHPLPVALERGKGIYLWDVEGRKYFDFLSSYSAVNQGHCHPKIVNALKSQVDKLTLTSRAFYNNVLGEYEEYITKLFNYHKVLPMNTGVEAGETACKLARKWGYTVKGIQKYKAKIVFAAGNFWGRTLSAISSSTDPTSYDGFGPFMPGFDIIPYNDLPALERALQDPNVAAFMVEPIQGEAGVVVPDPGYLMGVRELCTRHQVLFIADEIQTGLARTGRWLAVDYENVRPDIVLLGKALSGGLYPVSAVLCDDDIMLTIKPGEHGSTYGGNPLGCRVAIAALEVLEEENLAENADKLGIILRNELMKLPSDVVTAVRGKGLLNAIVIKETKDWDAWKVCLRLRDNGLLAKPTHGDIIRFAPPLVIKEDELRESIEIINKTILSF

[2] = molecular target: T2, ornithine aminotransferase (OAT) (Homo sapiens, UniProt P04181); experiment: Continuous coupled OAT assay (PYCR1/NADH), inhibition of OAT; type: biochemical; settings: FIG. 2
T2 sequence (P04181 36-439 limits assumed): T1 sequence (P04181 36-439 limits assumed)
Text: With these two assays in hand, the activity of a variety of compounds made previously as potential inhibitors of GABA-AT were investigated.

[3] = tested on: γ-aminobutyric acid aminotransferase (GABA-AT); experiment: Inhibition/inactivation of GABA-AT; type: biochemical
[4] = rat, in vivo
Description: At the conclusion of dosing, rats entered a wash-out period (5-7 days) after which electroretinograms (ERGs) for scotopic (rod), mesopic (standard combined), photopic (cone), and 10 Hz and 15 Hz3 flicker ERG responses were collected for both eyes from each rat.
Quantitative histological examinations of retinas of the rats from this study were also carried out. Cone receptors were stained with a cone arrestin antibody and counterstained with a red stain for visualization and counting. Retinal sections were also stained with H&E and the ONL nuclei counts and ONL thicknesses were determined.

alanine aminotransferase = experiment: Inhibition of alanine aminotransferase; type: biochemical; settings: even at 6 mM concentration
[5] = tested on: aspartate aminotransferase; experiment: Inhibition of aspartate aminotransferase; type: biochemical; settings: even at 6 mM concentration
[6] = tested on: Cerep panel of 111 pharmacological targets; experiment: Cerep panel
[7] = tested on: three human GABA transporters; experiment: Binding to GABA transporters (summary statement)
GABAA = experiment: Binding to GABAA
GABAC = experiment: Binding to GABAC
[8] = tested on: human peripheral blood lymphocytes (HPBL); experiment: In vitro mammalian chromosome aberration test; type: cell-based; settings: 535, 1070, and 2140 μg/mL, absence and presence of S9
Description: CPP-115 was tested in the in vitro mammalian chromosome aberration test using human peripheral blood lymphocytes (HPBL) in both the absence and presence of an Aroclor-induced rat liver S9 metabolic activation system.

CYP3A4/5 = experiment: CYP inhibition in human liver microsomes; type: in vitro ADME; settings: 0.1 to 100 μM
CYP1A2 = settings: concentrations up to 100 μM, 3 days
[9] = in vivo
Description: Each dose cohort consisted of 8 subjects. […] Subjects were followed for safety for a 30-day period after receiving their single dose of study treatment.
Dose escalation can continue until completion of the 500 mg dose cohort.

[10] = tested on: Salmonella typhimurium (TA98, TA100, TA1535, and TA1537) and Escherichia coli (WP2uvrA); experiment: In vitro bacterial reverse mutation assay; settings: up to 5000 μg per plate, presence or absence of S9
[11] = 4-week oral (gavage) toxicology/toxicokinetic study in rats
Description: Rats received test article once daily for at least 4 weeks at a dose volume of 10 mL/kg followed by a 4-week recovery period.

[12] = 4-week oral (gavage) toxicology/toxicokinetic study in dogs
Description: Dogs received test article once daily for at least 4 weeks at a dose volume of 7 mL/kg followed by a 4-week recovery period.
Assessment of toxicity was based on mortality, clinical observations, body weights, body weight gain, food consumption, physical examinations, vital signs (heart rate, respiration, and body temperature), ophthalmology examinations, electrocardiogram examinations, clinical and anatomic pathology, and left eye evaluation.

[13] = tested on: γ-aminobutyric acid aminotransferase (GABA-AT); settings: cited from earlier work
[14] = molecular target: T2, ornithine aminotransferase (OAT); experiment: Time-dependent inactivation of OAT and dialysis of the inactivated enzyme; type: biochemical; settings: no activity returned upon dialysis for 48 h
Description: OAT activity assays were carried out using as follows.
OAT incubated without the inactivator serves as a control. After 24 h, the enzyme solutions are transferred to a D-Tube™ Mini dialyzer and exhaustively dialyzed against the buffer (100 mM pyrophosphate buffer containing 0.1 mM alpha-ketoglutarate and 0.1 mM PLP, pH 8.0) at 4° C. protected from light. The dialysis buffer is exchanged three times every 4 h and left overnight. After 48 h of dialysis, the remaining OAT activity in each of the solutions is assayed.
For the determination of KI and kinact values, the natural logarithm of the percentage of remaining OAT activity is plotted against the pre-incubation time at each inhibitor concentration to obtain the kobs (slope) value for each concentration. The kobs is the rate constant describing the inactivation at each inhibitor concentration. kobs is re-plotted against the inhibitor concentration using nonlinear regression analysis (Graph-Pad Prism 6; GraphPad Software Inc.). kinact and the KI were estimated from the equation below: […], where kinact is the maximal rate of inactivation, KI is the inhibitor concentration required for half-maximal inactivation, and [I] is the pre-incubation concentration of inhibitor. […] The initial rate constants for the inactivation at various concentrations of the two compounds are determined using nonlinear regression analysis.

Hep3B cells = experiment: Alpha-fetoprotein (AFP) secretion in HCC cells; type: cell-based, human
HepG2 = experiment: Suppression of AFP levels in HCC cells; type: cell-based; settings: HepG2, data not shown
Safety of 13 in mice = type: in vivo, C57Bl/6 mice; settings: 0.5-5 mg/kg, two doses on days 1 and 4, tested a week later; data not shown
Hep3B = experiment: HCC proliferation, 3H-thymidine assay; type: cell-based, human; settings: 48 h after exposure to 20 mM gabaculine
PLC/PRF/5 [15] = experiment: HCC proliferation, 3H-thymidine assay; type: cell-based; settings: PLC/PRF/5, 48 h after exposure to 20 mM gabaculine
HepA1-6 [16] = experiment: HCC proliferation, 3H-thymidine assay; type: cell-based; settings: HepA1-6, 48 h after exposure to 20 mM gabaculine
PLC/PRF/5 [17] = experiment: Alpha-fetoprotein (AFP) secretion in HCC cells; type: cell-based
HepA1-6 [18] = experiment: Alpha-fetoprotein (AFP) secretion in HCC cells; type: cell-based
Description: (§1) Alpha-fetoprotein (AFP) secretion was evaluated as a biomarker for HCC. […] Within seven days of a single dose to HCC-harboring mice, AFP serum levels decreased by 92% in comparison with a 9.7 fold increase in controls (FIG. 5C).

[19] = tested on: human hepatoma Hep3B cells; experiment: Effect of gabaculine on HCC growth in vivo; set-up: species or system Athymic Balb/C mice
Description: as §1
Athymic Balb/C mice were conditioned with sub-lethal radiation (400 cGy). At 24 h after irradiation, animals were injected subcutaneously at the right shoulder with 5×10^6 human hepatoma Hep3B cells. Blood samples were obtained weekly by retrobulbar puncture, and serum was separated and frozen at −20° C. until assayed. On day 45 the mice were divided into two groups (n=8 per treated and controls) and baseline serum AFP was measured. […] Mice in the control group were injected with saline. AFP serum levels, which correlate with tumor growth, were measured on day 52 using a standard Elisa test.

## COc1cccc2c1C(=O)c1c(O)c3c(c(O)c1C2=O)C[C@@](O)(C(=O)CO)C[C@@H]3O[C@H]1C[C@H](N)[C@H](O)[C@H](C)O1 [doxorubicin]
[1]
  response rates: about 10%

## N.N.[Cl][Pt][Cl] [cisplatin]
[1]
  response rates: about 10%

## NOCC[C@H](N)C(=O)O [L-canaline]
OAT
  inactivation/inhibition of OAT (known compounds): irreversible inhibitors of OAT

## NC(CF)CC[C@H](N)C(=O)O (stereo partly drawn) [5-Fluoromethylornithine]
OAT
  inactivation/inhibition of OAT (known compounds): irreversible inhibitors of OAT

## NC1CC(C(=O)O)CC1=C(Cl)Cl (stereo not drawn) [Compound 18]
[2]
  inhibition of / binding to OAT, in words: very weak binder
[3]
  binding to GABA-AT: very weak binder

## Cl.N[C@H]1C[C@@H](C(=O)O)C/C1=C\F [Compound 20, (E)-(1S,3S)-3-Amino-4-fluoromethylenyl-1-cyclopentanoic acid, hydrochloride salt]
[3]
  time-dependent inhibition of GABA-AT: potent time-dependent inhibitors of GABA-AT

## NCCCC(=O)O [GABA, γ-aminobutyric acid]
OAT
  inactivation/inhibition of OAT (known compounds): competitive inhibitor of OAT

## C=CC(N)CCC(=O)O (stereo not drawn) [vigabatrin, Vigabatrin, reference compound]
[4]
  cone receptor counts: no statistically significant change
OAT
  inactivation/inhibition of OAT (known compounds): does not inactivate OAT

## Cl.N[C@H]1C[C@@H](C(=O)O)C/C1=C/F [Compound 22, (Z)-(1S,3S)-3-Amino-4-fluoromethylenyl-1-cyclopentanoic acid, hydrochloride salt]
[3]
  time-dependent inhibition of GABA-AT: potent time-dependent inhibitors of GABA-AT

## N[C@H]1C[C@@H](C(=O)O)CC1=C(F)F [CPP-115, (1S,3S)-3-amino-4-difluoromethylenyl-1-cyclopentanoic acid]
Alanine aminotransferase
  inhibition of alanine aminotransferase: does not inhibit
[5]
  inhibition of aspartate aminotransferase: does not inhibit
[6]
  activity in the Cerep panel of 111 pharmacological targets: not active
[7]
  binding to three human GABA transporters: does not bind
GABAA
  binding to GABAA: does not bind
GABAC
  binding to GABAC: does not bind
[8]
  chromosome aberrations: not elastogenic; also recorded: no mutations or chromosomal aberrations
CYP3A4/5
  direct inhibition of CYP3A4/5: little or no evidence of direct inhibition
CYP1A2
  induction of CYP1A2 activity: not an inducer
[9]; human, po
  elimination half-life: 4 to 6 h
[9]
  AUCs versus dose: greater than proportional increase
  cmax versus dose: increased in a dose proportional manner
[9]; po
  time to peak blood concentration: approximately 30 minutes
[10]
  mutagenicity (reverse mutations): not mutagenic; also recorded: no mutations
[11]; 2, 6, 20 mg/kg/day oral
  increases in Cmax and AUC0-t with dose: generally dose proportional
[11]; 6 or 20 mg/kg/day, dosing and recovery phases
  adverse microscopic finding: retinal dysplasia
[11]; after oral administration
  hepatic extraction and tissue distribution: may not be highly extracted by the liver and may highly distribute to the tissues
[11]; oral once daily, 4 weeks
  accumulation after multiple dosing: No accumulation
[11]; rats
  Human Equivalent Dose [HED] of NOAEL: 0.96 mg/kg/day
[12]; dogs
  Human Equivalent Dose [HED] of NOAEL: 1.24 mg/kg/day
[12]; females
  no-observed-effect-level (NOEL): 0.7 mg/kg/day
[12]; males
  no-observed-effect-level (NOEL): 2.3 mg/kg/day

## C#CC(N)CCC(=O)O (stereo not drawn) [4-aminohex-5-ynoic acid]
OAT
  inactivation/inhibition of OAT (known compounds): also inactivate OAT with equal potency
[13]; prior art, FIG. 1
  inactivation/inhibition of GABA-AT (known compounds): inactivators of GABA-AT

## COc1ccc(CN2C(=O)[C@H]3CC(=C(F)F)[C@@H]2C3)cc1 [Compound 13]
[2]
  Ki: 3000 nM
  inhibition of / binding to OAT, in words: most potent inhibitor
[14]
  efficiency/potency as time-dependent irreversible inhibitor (inactivator) of OAT: most efficient
[3]; even at 10 mM concentration
  inhibition of GABA-AT: does not inhibit GABA-AT
Hep3B cells; Hep3B, data not shown
  suppression of AFP levels / HCC tumor growth in vitro: profound suppression
HepG2
  suppression of AFP levels / HCC tumor growth in vitro: profound suppression
Safety of 13 in mice
  liver enzymes, weight, behavior, and fur look: none of the tested doses were there any notable effects

## Gabaculine
Hep3B
  suppression of proliferation: 46-51%
PLC/PRF/5 [15]
  suppression of proliferation: 46-51%
HepA1-6 [16]
  suppression of proliferation: 46-51%
Hep3B cells; Hep3B cells
  decrease of AFP secretion: 20%
PLC/PRF/5 [17]
  AFP suppression: No significant differences
HepA1-6 [18]
  AFP suppression: No significant differences
[19]; HCC-harboring mice
  tumor growth in vivo: significantly suppressed tumor growth in vivo
[19]; within seven days of a single dose (500 microgram/kg i.p.)
  decrease of AFP serum levels: 92%
[13]
  inactivation/inhibition of GABA-AT (known compounds): inactivators of GABA-AT

## O=c1[nH]cc(F)c(=O)[nH]1 [fluorouracil]
[1]
  response rates: about 10%

## Nc1ccn([C@@H]2O[C@H](CO)[C@@H](O)C2(F)F)c(=O)n1 [gemcitabine]
[1]
  response rates in clinical trials: low and short term

## CCCCCOC(=O)Nc1nc(=O)n([C@@H]2O[C@H](C)[C@@H](O)[C@H]2O)cc1F [capecitabine]
[1]
  response rates in clinical trials: low and short term
